# According to PMC3104677 (Molecular microbiology, 2009):
# Biological target: T1, NrpR (Methanococcus maripaludis, UniProt Q6LZL7)
# T1 sequence (Q6LZL7 1-536): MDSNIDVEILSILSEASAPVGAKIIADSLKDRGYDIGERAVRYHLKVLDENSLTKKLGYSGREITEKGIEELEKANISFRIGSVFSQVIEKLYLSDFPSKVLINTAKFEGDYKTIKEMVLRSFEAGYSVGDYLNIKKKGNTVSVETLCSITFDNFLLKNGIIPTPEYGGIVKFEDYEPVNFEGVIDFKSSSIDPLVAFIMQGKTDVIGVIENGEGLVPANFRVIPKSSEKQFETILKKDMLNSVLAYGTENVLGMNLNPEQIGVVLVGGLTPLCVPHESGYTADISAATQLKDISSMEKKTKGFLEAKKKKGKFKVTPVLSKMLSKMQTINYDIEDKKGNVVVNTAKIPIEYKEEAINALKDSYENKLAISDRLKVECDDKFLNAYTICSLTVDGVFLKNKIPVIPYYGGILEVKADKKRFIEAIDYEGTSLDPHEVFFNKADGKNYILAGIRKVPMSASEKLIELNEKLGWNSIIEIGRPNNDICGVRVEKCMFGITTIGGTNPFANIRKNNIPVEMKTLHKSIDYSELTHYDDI
# Assay: EMSA, inhibition of NrpR binding to […]-labelled glnK1 operator DNA
# Conditions: inducer ligand; wild type glnK1 operator region O1+O2; 0.1 and 0.4 mM 2OG
structure (smiles),measurement,value
O=C(O)CCC(=O)C(=O)O [2-oxoglutarate],"EMSA, inhibition of NrpR binding to 32P-labelled glnK1 operator DNA",2OG indicates the nitrogen state of the cell and is the inducer ligand
